Laboratory results from patent US6482609B1, “Isolated human EDG-4 receptor and polynucletide encoding said receptor” (priority 1997, dated 2002).

Assays:
Assay type in all cases: cell-based
EDG-7 [1] = test: Calcium microfluorimetry in 293-EBNA cells, EDG-7; conditions: 2 and 10 μM, preliminary data
Procedure: (§1) Transfections were carried out with EDG receptors in 293-EBNA cells as described above, except that no reporter gene vector was included in the DNA mix. Two days after transfection, cells were harvested by trypsinization and plated at a density of 200,000 cells onto poly-D-lysine-coated coverslips in 100 μl of medium containing 0.5% FBS. After briefly allowing cell attachment to take place, 2 ml of medium without FBS was added and the cells were incubated overnight. The next day, cells were loaded with 5 μM fura-2 AM ester (Molecular Probes) for 60 min at RT, then washed and used for calcium microfluorimetry. […] Treatments were applied using a gravity-fed perfusion apparatus. Fluorescence emission was continuously monitored and recorded with PTI 2.060a software and analyzed with Sigma Plot software. Intracellular calcium concentrations were calculated by interpolation on a ratiometric fluorescence curve generated from fura-2 fluorescence in a calcium dilution series.

293-EBNA cells = test: IL-8 production in untransfected 293-EBNA cells
EDG-1 = EDG-1 (Homo sapiens, UniProt P21453); test: Calcium microfluorimetry (fura-2) in 293-EBNA cells, EDG-1; conditions: 2 and 10 μM, preliminary data
Sequence of EDG-1 (P21453 whole entry): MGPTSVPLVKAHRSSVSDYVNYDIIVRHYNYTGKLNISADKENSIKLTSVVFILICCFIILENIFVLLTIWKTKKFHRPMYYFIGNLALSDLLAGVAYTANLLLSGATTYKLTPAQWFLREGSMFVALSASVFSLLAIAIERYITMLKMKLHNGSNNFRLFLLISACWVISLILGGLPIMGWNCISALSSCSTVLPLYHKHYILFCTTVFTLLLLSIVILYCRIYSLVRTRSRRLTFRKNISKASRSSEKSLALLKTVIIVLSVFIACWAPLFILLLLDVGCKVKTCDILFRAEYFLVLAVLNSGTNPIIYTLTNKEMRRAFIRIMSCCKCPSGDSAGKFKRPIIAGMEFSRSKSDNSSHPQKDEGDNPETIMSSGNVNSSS
Procedure: as §1

human EDG-3 [2] = target: T1, human EDG-3 (Homo sapiens, UniProt Q99500); test: SRE luciferase reporter in 293-EBNA cells, EDG-3; conditions: EDG-3 clone pC3-E3HP2; 3 μM; 6 hours
T1 construct: expressed in transfected cells; host or cells: 293-EBNA
T1 sequence (Q99500 whole entry): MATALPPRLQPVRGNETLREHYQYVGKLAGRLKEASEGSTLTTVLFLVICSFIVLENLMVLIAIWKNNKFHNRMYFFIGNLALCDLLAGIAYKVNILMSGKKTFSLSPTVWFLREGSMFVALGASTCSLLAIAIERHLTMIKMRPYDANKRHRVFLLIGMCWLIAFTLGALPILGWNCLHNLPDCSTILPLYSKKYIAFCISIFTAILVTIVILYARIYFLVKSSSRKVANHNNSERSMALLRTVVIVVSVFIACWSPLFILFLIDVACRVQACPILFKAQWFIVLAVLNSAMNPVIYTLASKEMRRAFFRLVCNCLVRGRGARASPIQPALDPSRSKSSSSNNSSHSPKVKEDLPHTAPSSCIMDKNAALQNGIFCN
Procedure: NE-κB activates gene expression by binding to specific DNA sequences found in the promoters of genes regulated by this inflammation-related transcription factor. […] Transient Transfection Protocol for 293-EBNA (Assay 3): The protocol described in Example 11 for Assay 1 was followed except for the following changes: […] 3) 30 μl Lipofectamine Reagent (Lipofectamine Plus Kit) was diluted in 750 μl DMEM/F12. The diluted Lipofectamine was then combined with the DNA/Plus mixture and incubated at room temperature for 15 min. […] 2) Transfected cells were harvested by trypsinization and 50,000 cells per well were plated in 96-well Blackview plates coated with poly D-lysine (Becton Dickinson Labware, Cat. 40640). No cells were plated in the outside wells of the 96-well plate. […] The following treatments were used for all transfections: […] 2) The cells were treated for 6 hours. 3) Luciferase assay was performed.

human EDG-4 = human EDG-4 (Homo sapiens, UniProt O95136); test: SRE luciferase reporter in 293-EBNA cells, human EDG-4; conditions: for Agonist character at EDG-4: conclusion from the reporter assay of Table 2; for Rank (EMax): rank of efficacy among compounds tested
Procedure: NE-κB activates gene expression by binding to specific DNA sequences found in the promoters of genes regulated by this inflammation-related transcription factor. […] The SRE reporter was identical to the NF-κB reporter, except that the NF-κB binding sites were replaced with 2 SRE sites. The new reporter was called 2XSREtk-p4Luc-zeo.
(§2) The protocol described in Example 11 for Assay 1 was followed except for the following changes:
(§3) 2) SRE Cotransfection: 0.5 μg of 2XSREtk-p4Luc-zeo reporter DNA and 3.5 μg pcDNA3, EDG-1, EDG-3 (pC3-hE3HP2, different from the clone used in Assay 2 of Example 11) or the newly cloned human EDG-4 (pC3-hedg4#36); NF-κB Cotransfection: 2 μg 6XNFκBtk-p4Luc-zeo reporter DNA and 2.0 μg pcDNA3, EDG-1, EDG-3 (pC3-hE3HP2), or EDG-4 (pC3-hedg4#36). Expression plasmid and reporter plasmid DNA samples were combined and diluted in 750 μl of DMEM/F12 (serum free media) and 20 μl Plus Reagent (Lipofectamine Plus Kit, Life Technologies Cat. 10964-013), and incubated at room temperature for 15 min.
(§4) 1) Media was removed and cells treated with compounds diluted in DMEM/F12 media.
(§5) 2) The cells were treated for 6 hours.
(§6) 3) Luciferase assay was performed.
Transfection was accomplished using the Lipofectamine Plus kit (Life Technologies, Cat. 10964-013), using the manufacturer's recommended conditions.
Transfection of EDG-4, expression, pretreatment and treatment of 293-EBNA cells expressing recombinant human EDG-4 was carried out essentially as described in “Example 11. […] Results were tabulated in Microsoft Excel, and analyzed with GraphPad Prism software. […] The luciferase response was expressed as fold response, after subtracting any endogenous response in pcDNA3-transfected cells at a given concentration of compound.

rat edg4 = rat edg4 (Rattus norvegicus, UniProt P47752); test: IL-8 ELISA on COS-1 cells transiently transfected with rat EDG-4; design: expressed in transfected cells
Sequence of rat edg4 (P47752 whole entry): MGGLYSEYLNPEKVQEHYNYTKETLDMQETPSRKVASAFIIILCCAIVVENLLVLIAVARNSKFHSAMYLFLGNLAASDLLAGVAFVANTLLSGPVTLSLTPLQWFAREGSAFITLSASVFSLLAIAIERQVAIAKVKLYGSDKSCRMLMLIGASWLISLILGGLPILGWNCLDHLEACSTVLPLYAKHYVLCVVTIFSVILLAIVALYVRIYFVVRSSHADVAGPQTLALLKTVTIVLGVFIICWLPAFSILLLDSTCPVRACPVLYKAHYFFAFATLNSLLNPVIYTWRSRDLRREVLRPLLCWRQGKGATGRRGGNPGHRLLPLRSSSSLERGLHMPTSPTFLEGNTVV
Procedure: A. DEAE/Dextran Cell Suspension Transient Transfection.
Transfection was done as described in Anal Biochem 218:460 (1994).
1) 6 ml RSC was added to 4-50 ml tubes. The following amounts of DNA were added:
3) 1.5 ml COS-1 cell suspension (5.5×10^6 cells total) in RSC was added to each tube and incubated for 105 min in 37° C. incubator. Tubes were mixed every 20 min.
4) Following incubation, tubes were spun for 5 min, cell pellets were washed with DMEM/F12+10% FBS once and then resuspended in 10 ml media. Cells were plated in 24-well plates at 0.2×10^6 cells/well.
500 μl treatment volume was used. Supernatants were microfuged at 14,000 rpm for 10 min., transferred to new eppendorf tubes and stored at −20° C. for future IL-8 ELISA determination.
The procedure as outlined in Procedure for HeLa Cells (D) was followed, using 50 μl of sample per ELISA determination in duplicate.

EDG-7 [3] = test: NF-κB reporter, EDG-7
human EDG-3 [4] = test: NF-κB luciferase reporter in 293-EBNA cells, EDG-3; conditions: for NF-κB response, original human EDG-3 clone: original human EDG-3 clone (pC3-hedg3)
Procedure: 2) 3 μg NFκB-tk-p4Luc reporter DNA and 3 μg pC3-hedg1, pC3-hedg3, pC3-redg4, pC3-hedg5 or pcDNA3 DNA was diluted in 240 μl OPTI-MEM (Gibco; Cat. 31985-062)
Transient Transfection Protocol for 293-EBNA (Assay 3):
as §2, §3
3) 30 μl Lipofectamine Reagent (Lipofectamine Plus Kit) was diluted in 750 μl DMEM/F12. The diluted Lipofectamine was then combined with the DNA/Plus mixture and incubated at room temperature for 15 min.
6) The transfection medium was replaced with serum-free DMEM/F12 for cells transfected with 2XSREtk-p4Luc-zeo reporter DNA and with DMEM/F12 plus 10% FBS for cells tansfected with 6XNFκBtk-p4Luc-zeo reporter DNA.
2) Transfected cells were harvested by trypsinization and 50,000 cells per well were plated in 96-well Blackview plates coated with poly D-lysine (Becton Dickinson Labware, Cat. 40640). No cells were plated in the outside wells of the 96-well plate.
1) Media for cells transfected with 6XNFκBtk-p4Luc-zeo reporter DNA was replaced with DMEM/F12 plus 0.5%FBS.
as §4, §5, §6

human EDG-3 [5] = target: T1, human EDG-3; test: Calcium microfluorimetry in 293-EBNA cells, EDG-3; conditions: EDG-3 transfected cells; 2 μM S1P
Procedure: as §1

CCCCCCCCCCCCC/C=C/[C@@H](O)[C@@H](N)COP(=O)(O)O [S1P, sphingosine-1-phosphate]
Qualitative calcium response (EDG-7 [1]): None within 20 min | IL-8 production (293-EBNA cells): no IL-8 production | Qualitative calcium response (EDG-1): None within 20 min | SRE response (human EDG-3 [2]): 12 fold | Agonist character at EDG-4 (human EDG-4): full agonists | Rank (EMax) (human EDG-4): 2 | Increase in IL-8 release compared to untreated cells (rat edg4; COS-1 cells transfected with EDG-4 expression plasmid, 5 μm, overnight): 2 fold | PTX sensitivity of IL-8 response (rat edg4; EDG-4 transfected COS-1 cells, PTX 50 ng/ml): pertussis toxin sensitive | NF-κB reporter signaling (EDG-7 [3]): fail to signal through NF-κB reporters | NF-κB response, original human EDG-3 clone (human EDG-3 [4]): did not produce a NF-κB response | Increase in intracellular calcium (human EDG-3 [5]): 300 nM

CCCCCCCCCCCCC/C=C/[C@@H](O)[C@@H](N)COP(=O)([O-])OCC[N+](C)(C)C [SPC, sphingosylphosphorylcholine]
SRE response (human EDG-3 [2]): 11 fold | EC50 (human EDG-4; 293-EBNA expressing human EDG-4, luciferase after 6 hr, pcDNA3 response subtracted): 880 nM | Agonist character at EDG-4 (human EDG-4): full agonists | Induction of the SRE reporter gene (human EDG-4; pC3-hedg4#36, 3 μM SPC, 6 hr, Example 15A): 26.3 fold | Rank (EMax) (human EDG-4): 1 | EMax (Percent) (human EDG-4; relative efficacy, 6 hr): 100% | Induction of the NF-κB reporter gene compared to untreated controls (human EDG-3 [4]; EDG-3 clone pC3-E3HP2, 3 μM, 6 hours): about 8 fold | NF-κB response, original human EDG-3 clone (human EDG-3 [4]): did not produce a NF-κB response
